# What was measured:
# windgrass [1] = assay: Test Example 4: herbicidal effect by soil treatment (Table 19, symbol L); format: in vivo, windgrass (Apera spica-venti)
# Summary of the method: (§1)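 Three weeks of greenhouse growth at 25° C. to 30° C. followed a uniform surface spray of water-diluted emulsion at a predetermined herbicide amount. Seeds had been sown beforehand under about 1.5 cm of sterilized diluvial soil. Grading followed criteria set out in an earlier test.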
# lambsquarters [2] = assay: Test Example 4: herbicidal effect by soil treatment (Table 19, symbol O); format: in vivo, lambsquarters (Chenopodium album)
# Summary of the method: as §1
# persian speedwell [3] = assay: Test Example 4: herbicidal effect by soil treatment (Table 19, symbol R); format: in vivo, Persian speedwell (Veronica persica); details: 320 g/ha
# Summary of the method: as §1
# velvetleaf = assay: Test Example 4: herbicidal effect by soil treatment (Table 19, symbol M); format: in vivo, velvetleaf (Abutilon theophrasti)
# Summary of the method: as §1
# southern crabgrass [4] = assay: Test Example 4: herbicidal effect by soil treatment (Table 19, symbol F); format: in vivo, southern crabgrass (Digitaria ciliaris)
# Summary of the method: as §1
# southern crabgrass [5] = assay: Test Example 5: herbicidal effect by foliage application, plastic box (Table 20, symbol F); format: in vivo, southern crabgrass (Digitaria ciliaris); details: foliage application
# Summary of the method: (§2)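 Plants sown in sterilized diluvial soil and grown 14 days in a greenhouse at 25° C to 30° C, then sprayed on the foliage with the compound's emulsion diluted in water to a predetermined herbicide amount. Injury to weeds and crops scored three weeks after application on a visual rating scale.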
# barnyard grass = assay: Test Example 3: herbicidal effect by foliage application, Wagner pot (Table 18, symbol H); format: in vivo, barnyard grass (Echinochloa crus-galli); details: for herbicidal effect on H (barnyard grass), rating 0-5: 320 g/ha
# Summary of the method: (§3)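 Plants were sown in alluvial soil held under 0.1–0.5 cm standing water and grown 14 days in a greenhouse at 25–30 °C. An emulsifiable formulation, water-diluted to the set dose, was then sprayed onto the foliage, and effects were scored three weeks later using previously defined criteria.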
# blackgrass = assay: Test Example 4: herbicidal effect by soil treatment (Table 19, symbol J); format: in vivo, blackgrass (Alopecurus myosuroides)
# Summary of the method: as §1
# windgrass [6] = assay: Test Example 5: herbicidal effect by foliage application, plastic box (Table 20, symbol L); format: in vivo, windgrass (Apera spica-venti); details: foliage application
# Summary of the method: as §2
# late watergrass [7] = assay: Test Example 1: herbicidal activity, application before weed generation under submerged conditions (Table 16, symbol A); format: in vivo, late watergrass (Echinochloa oryzicola); details: 320 g/ha applied herbicide
# Summary of the method: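 Emulsion formulation, water-diluted to set dose, was put onto the flooded surface (4 cm depth, alluvial soil) the same day weeds were sown and 2.5-leaf rice transplanted. After 3 weeks at 25-30 °C under glass, each species was rated 0 (≤5% kill) to 5 (≥90% kill).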
# Italian ryegrass [8] = assay: Test Example 5: herbicidal effect by foliage application, plastic box (Table 20, symbol K); format: in vivo, Italian ryegrass (Lolium multiflorum); details: foliage application
# Summary of the method: as §2
# persian speedwell [9] = assay: Test Example 5: herbicidal effect by foliage application, plastic box (Table 20, symbol R); format: in vivo, Persian speedwell (Veronica persica); details: foliage application
# Summary of the method: as §2
# Chinese sprangletop = assay: Test Example 3: herbicidal effect by foliage application, Wagner pot (Table 18, symbol D); format: in vivo, chinese sprangletop (Leptochloa chinensis); details: for herbicidal effect on D (Chinese sprangletop), rating 0-5: 320 g/ha
# Summary of the method: as §3
# lambsquarters [10] = assay: Test Example 5: herbicidal effect by foliage application, plastic box (Table 20, symbol O); format: in vivo, lambsquarters (Chenopodium album); details: foliage application
# Summary of the method: as §2
# Italian ryegrass [11] = assay: Test Example 4: herbicidal effect by soil treatment (Table 19, symbol K); format: in vivo, Italian ryegrass (Lolium multiflorum)
# Summary of the method: as §1
# Japanese bulrush = assay: Test Example 2: herbicidal activity, application during weed generation under submerged conditions (Table 17, symbol B); format: in vivo, Japanese bulrush (Schoenoplectus juncoides); details: AAH 320 g/ha; application during weed generation, submerged conditions
# Summary of the method: (§4)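 Herbicide emulsion, diluted with water to the chosen amount, is applied onto 4 cm floodwater over alluvial soil where the weeds were co-sown and raised at 25–30° C. Application timing: 1–2 leaves. Assessment: three weeks afterwards.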
# late watergrass [12] = assay: Test Example 2: herbicidal activity, application during weed generation under submerged conditions (Table 17, symbol A); format: in vivo, late watergrass (Echinochloa oryzicola); details: AAH 320 g/ha; application during weed generation, submerged conditions
# Summary of the method: as §4
# [13] = 320 g/ha, evaluated three weeks after application
# [14] = amount of applied herbicide 320 g/ha
# [15] = AAH 320 g/ha, evaluated three weeks after application
# [16] = 320 g/ha, 3 weeks after application
# [17] = AAH 320 g/ha, three weeks after application
structure (smiles),measurement,setting,value
"COc1cc(F)ccc1-c1sc2ccc(Cl)cc2c1-c1c(O)c(C)nn(C)c1=O [Compound No. 2-095, 4-(5-chloro-2-(4-fluoro-2-methoxyphenyl)benzo[b]thiophen-3-yl)-5-hydroxy-2,6-dimethylpyridazin-3(2H)-one]","herbicidal effect rating, L: windgrass",windgrass [1]; 320 g/ha,3 (Herbicidal rate of 40% or more and less than 70%)
same,"herbicidal effect rating, O: lambsquarters",lambsquarters [2]; 320 g/ha,5 (Herbicidal rate of 90% or more (almost completely withered))
same,"herbicidal effect rating, R: persian speedwell",persian speedwell [3],4 (Herbicidal rate of 70% or more and less than 90%)
same,"herbicidal effect rating, M: velvetleaf",velvetleaf; 320 g/ha,0 (Herbicidal rate of 5% or less (almost no effect))
same,"herbicidal effect rating, F: southern crabgrass",southern crabgrass [4]; 320 g/ha,3 (Herbicidal rate of 40% or more and less than 70%)
same,herbicidal effect on F: southern crabgrass,southern crabgrass [5]; [13],4 (Herbicidal rate of 70% or more and less than 90%)
same,"herbicidal effect on H (barnyard grass), rating 0-5",barnyard grass,5 (Herbicidal rate of 90% or more (almost completely withered))
same,"herbicidal effect rating, J: blackgrass",blackgrass; 320 g/ha,3 (Herbicidal rate of 40% or more and less than 70%)
same,herbicidal effect on L: windgrass,windgrass [6]; [13],5 (Herbicidal rate of 90% or more (almost completely withered))
same,Herbicidal effect on A: late watergrass (grade 0-5),late watergrass [7],2 (Herbicidal rate of 20% or more and less than 40%)
same,herbicidal effect on K: Italian ryegrass,Italian ryegrass [8]; [13],3 (Herbicidal rate of 40% or more and less than 70%)
same,herbicidal effect on R: persian speedwell,persian speedwell [9]; [13],5 (Herbicidal rate of 90% or more (almost completely withered))
same,"herbicidal effect on D (Chinese sprangletop), rating 0-5",Chinese sprangletop,4 (Herbicidal rate of 70% or more and less than 90%)
same,herbicidal effect on O: lambsquarters,lambsquarters [10]; [13],5 (Herbicidal rate of 90% or more (almost completely withered))
same,"herbicidal effect rating, K: Italian ryegrass",Italian ryegrass [11]; 320 g/ha,0 (Herbicidal rate of 5% or less (almost no effect))
C=CCSCc1ccc(-c2sc3ccc(F)cc3c2-c2c(O)c(C)nn(C)c2=O)cc1 [2-323],herbicidal effect on L: windgrass,windgrass [1]; [14],0 (Herbicidal rate of 5% or less (almost no effect))
same,herbicidal effect on O: lambsquarters,lambsquarters [2]; [14],3 (Herbicidal rate of 40% or more and less than 70%)
same,herbicidal effect on M: velvetleaf,velvetleaf; [14],1 (Herbicidal rate of 5% or more and less than 20%)
same,herbicidal effect on F: southern crabgrass,southern crabgrass [4]; [14],1 (Herbicidal rate of 5% or more and less than 20%)
same,"F: southern crabgrass, herbicidal effect (criteria 0-5)",southern crabgrass [5]; [15],5 (Herbicidal rate of 90% or more (almost completely withered))
same,herbicidal effect on H: barnyard grass,barnyard grass; [14],5 (Herbicidal rate of 90% or more (almost completely withered))
same,"herbicidal effect rating, B: Japanese bulrush",Japanese bulrush,0 (Herbicidal rate of 5% or less (almost no effect))
same,herbicidal effect on J: blackgrass,blackgrass; [14],0 (Herbicidal rate of 5% or less (almost no effect))
same,"L: windgrass, herbicidal effect (criteria 0-5)",windgrass [6]; [15],5 (Herbicidal rate of 90% or more (almost completely withered))
same,Herbicidal effect on A: late watergrass (grade 0-5),late watergrass [7],4 (Herbicidal rate of 70% or more and less than 90%)
same,"K: Italian ryegrass, herbicidal effect (criteria 0-5)",Italian ryegrass [8]; [15],4 (Herbicidal rate of 70% or more and less than 90%)
same,"R: persian speedwell, herbicidal effect (criteria 0-5)",persian speedwell [9]; [15],5 (Herbicidal rate of 90% or more (almost completely withered))
same,herbicidal effect on D: Chinese sprangletop,Chinese sprangletop; [14],2 (Herbicidal rate of 20% or more and less than 40%)
same,"O: lambsquarters, herbicidal effect (criteria 0-5)",lambsquarters [10]; [15],5 (Herbicidal rate of 90% or more (almost completely withered))
same,herbicidal effect on K: Italian ryegrass,Italian ryegrass [11]; [14],4 (Herbicidal rate of 70% or more and less than 90%)
same,"herbicidal effect rating, A: late watergrass",late watergrass [12],3 (Herbicidal rate of 40% or more and less than 70%)
"Cc1nn(C)c(=O)c(-c2c(-c3ccc(Cl)cc3)sc3ccc(F)cc23)c1O [Compound No. 2-010, 4-(2-(4-chlorophenyl)-5-fluorobenzo[b]thiophen-3-yl)-5-hydroxy-2,6-dimethylpyridazin-3(2H)-one]","herbicidal effect rating, L: windgrass",windgrass [1]; 320 g/ha,0 (Herbicidal rate of 5% or less (almost no effect))
same,"herbicidal effect rating, O: lambsquarters",lambsquarters [2]; 320 g/ha,5 (Herbicidal rate of 90% or more (almost completely withered))
same,"herbicidal effect rating, R: persian speedwell",persian speedwell [3],5 (Herbicidal rate of 90% or more (almost completely withered))
same,"herbicidal effect rating, M: velvetleaf",velvetleaf; 320 g/ha,5 (Herbicidal rate of 90% or more (almost completely withered))
same,"herbicidal effect rating, F: southern crabgrass",southern crabgrass [4]; 320 g/ha,5 (Herbicidal rate of 90% or more (almost completely withered))
same,effect on southern crabgrass (F),southern crabgrass [5]; [16],5 (Herbicidal rate of 90% or more (almost completely withered))
same,"herbicidal effect on H (barnyard grass), rating 0-5",barnyard grass,5 (Herbicidal rate of 90% or more (almost completely withered))
same,"herbicidal effect rating, J: blackgrass",blackgrass; 320 g/ha,0 (Herbicidal rate of 5% or less (almost no effect))
same,effect on windgrass (L),windgrass [6]; [16],5 (Herbicidal rate of 90% or more (almost completely withered))
same,Herbicidal effect on A: late watergrass (grade 0-5),late watergrass [7],3 (Herbicidal rate of 40% or more and less than 70%)
same,effect on Italian ryegrass (K),Italian ryegrass [8]; [16],5 (Herbicidal rate of 90% or more (almost completely withered))
same,effect on persian speedwell (R),persian speedwell [9]; [16],5 (Herbicidal rate of 90% or more (almost completely withered))
same,"herbicidal effect on D (Chinese sprangletop), rating 0-5",Chinese sprangletop,4 (Herbicidal rate of 70% or more and less than 90%)
same,effect on lambsquarters (O),lambsquarters [10]; [16],5 (Herbicidal rate of 90% or more (almost completely withered))
same,"herbicidal effect rating, K: Italian ryegrass",Italian ryegrass [11]; 320 g/ha,5 (Herbicidal rate of 90% or more (almost completely withered))
Cc1nn(C)c(=O)c(-c2c(-c3ccc4c(c3)OCCO4)sc3ccccc23)c1O [1-089],"herbicidal effect rating, L: windgrass",windgrass [1]; [14],0 (Herbicidal rate of 5% or less (almost no effect))
same,"herbicidal effect rating, O: lambsquarters",lambsquarters [2]; [14],5 (Herbicidal rate of 90% or more (almost completely withered))
same,"herbicidal effect rating, M: velvetleaf",velvetleaf; [14],2 (Herbicidal rate of 20% or more and less than 40%)
same,"herbicidal effect rating, F: southern crabgrass",southern crabgrass [4]; [14],3 (Herbicidal rate of 40% or more and less than 70%)
same,"F: southern crabgrass, herbicidal effect",southern crabgrass [5]; [17],4 (Herbicidal rate of 70% or more and less than 90%)
same,"herbicidal effect on H (barnyard grass), rating 0-5",barnyard grass,5 (Herbicidal rate of 90% or more (almost completely withered))
same,"herbicidal effect rating, B: Japanese bulrush",Japanese bulrush,1 (Herbicidal rate of 5% or more and less than 20%)
same,"herbicidal effect rating, J: blackgrass",blackgrass; [14],0 (Herbicidal rate of 5% or less (almost no effect))
same,"L: windgrass, herbicidal effect",windgrass [6]; [17],4 (Herbicidal rate of 70% or more and less than 90%)
same,Herbicidal effect on A: late watergrass (grade 0-5),late watergrass [7],5 (Herbicidal rate of 90% or more (almost completely withered))
same,"K: Italian ryegrass, herbicidal effect",Italian ryegrass [8]; [17],5 (Herbicidal rate of 90% or more (almost completely withered))
same,"R: persian speedwell, herbicidal effect",persian speedwell [9]; [17],5 (Herbicidal rate of 90% or more (almost completely withered))
same,"herbicidal effect on D (Chinese sprangletop), rating 0-5",Chinese sprangletop,0 (Herbicidal rate of 5% or less (almost no effect))
same,"O: lambsquarters, herbicidal effect",lambsquarters [10]; [17],3 (Herbicidal rate of 40% or more and less than 70%)
same,"herbicidal effect rating, K: Italian ryegrass",Italian ryegrass [11]; [14],0 (Herbicidal rate of 5% or less (almost no effect))
same,"herbicidal effect rating, A: late watergrass",late watergrass [12],5 (Herbicidal rate of 90% or more (almost completely withered))

# Source: patent US20230085307A1, “PYRIDAZINONE COMPOUND AND HERBICIDE” (NISSAN CHEMICAL CORPORATION, priority 2019, published 2023)
